This note sets out measurements from patent US4105659A, “1,2,3,4,5,6-Hexahydro-2,6-methano-3-benzazocines” (Sterling Drug Inc., priority 1964, dated 1978).

Data set [1] is described as follows: D'Amour-Smith test for analgesia in rats. In kind it is in vivo. As to the method: In tests as in animals as analgesics and as antagonists of strong analgesics, the racemic, dextro, and levo forms of trans 1,2,3,4,5,6-hexahydro-3-(3-methyl-2-butenyl)-6-ethyl-11-methyl-8-hydroxy-2,6-methano-3-benzazocine described in Example 7D above gave results substantially differing from those of the corresponding cis forms and of the related compounds of this invention. Thus, in the analgesic antagonist test versus a 60 mg/kg. dose of meperidine, the maximum degree of antagonism which could be obtained for these three trans forms was: for the racemic trans form, 50 percent antagonism at 0.1 mg/kg.; for the dextro trans form, 30 percent antagonism at 1.25 mg./kg.; and for the levo trans form, 22 percent antagonism at 0.1 mg./kg.

In data set [2] the test system is analgesic effect of meperidine hydrochloride. Briefly: Antagonism of meperidine analgesia, modified D'Amour-Smith test. The settings on record: for maximum degree of antagonism: versus 60 mg/kg. meperidine.
Data set [3] is described as follows: Clinical analgesia in human subjects. The class given is in vivo. As to the method: In human subjects, however, the compounds of Formulas I and II are valuable and effective agents for producing analgesia when administered in the general range of about 10 to 500 mg. per 70 kg. of subject weight, the dosage depending of course on the particular compound, the mode of administration, and the like. The following clinical results which were obtained in human subjects are illustrative. For oral administration the free base was used, and for parenteral (usually intramuscular) administration an aqueous solution of the lactate salt was used; the dosages are expressed in each instance in terms of milligrams of base per 70 kilograms of body weight of the human subject.

The nature of data set [4]: Solubility, pH of solution and precipitation on pH adjustment or dilution. The class given is physicochemical. The protocol:
A. A mixture of 8.7 g. of racemic cis 1,2,3,4,5,6-hexahydro-6,11-dimethyl-8-hydroxy-2,6-methano-3-benzazocine (which is also known as racemic cis 2'-hydroxy-5,9-dimethyl-6,7-benzomorphan), 6.0 g of 1-bromo-3-methyl-2-butene, 5.0 g. of sodium bicarbonate, and 125 ml. of N,N-dimethylformamide was stirred and refluxed for approximately 41/2 hours. The reaction mixture was then filtered, and the solid on the filter was washed with ethanol. The filtrate and the wash liquor were combined, concentrated under reduced pressure, and then extracted with chloroform. The chloroform extract was concentrated under reduced pressure to yield a syrup which weighed 15.8 g. This syrup was dissolved in 120 ml. of diethyl ether and the resulting solution was filtered to remove approximately one-half gram of a brown amorphous solid. The filtrate was extracted with a mixture of 5 ml. of concentrated hydrochloric acid and 20 ml. of water. To the extract there was added 5 ml. of concentrated ammonium hydroxide solution and ice. A pale tan syrup separated from solution and after stirring, this syrup solidified. The resulting pale tan solid was collected and dried; it weighed 10.6 g. After two recrystallizations from a mixture of methyl alcohol and water, with charcoaling, this solid weighed 8.2 g. and melted at 145°-147° C. The product thus obtained was racemic cis 1,2,3,4,5,6-hexahydro-3-(3-methyl-2-butenyl)-6,11-dimethyl-8-hydroxy-2,6-methano-3-benzazocine (Formula II: Y = --CH2 --CH=C(CH3)2; R^3 = --H), having the molecular formula C19 H27 NO. This product was soluble in a mixture of 0.35 ml. of N/2 hydrochloric acid and 0.15 ml. of water to the extent of 10 percent, the pH of the 1 percent solution being 2.80; and when the pH of the 1 percent solution was gradually raised by addition of N/10 sodium hydroxide solution, a precipitate formed at pH 5.4. When the base was converted to the hydrochloride and was then regenerated from this salt it melted at 151°-153° C. The hydrochloride of this base melted at 245°-247° C. (dec.). and the cyclohexylsulfamate of this base melted at 163°-166° C. The base formed a grayish-yellowtannate.
The racemic trans product was converted to its hydrobromide, having the molecular formula C19 H27 NO·HBr, which was obtained as white needles which melted at 240°-241° C.
The dextro trans product was converted to its hydrochloride, having the molecular formula C19 H27 NO·HCl, which was obtained as white crystals which melted at 254°-255° C.
The levo trans product was converted to its hydrochloride, having the molecular formula C19 H27 NO·HCl, which was obtained as white crystals which melted at 254°-255° C. (dec.); this hydrochloride was soluble in water to the extent of 5 percent, the pH of a 1 percent aqueous solution being 5.7, a precipitate being formed when the 1 percent aqueous solution was adjusted to 7.0 by addition of N/10 sodium hydroxide solution.
A. A mixture of 9.25 g. of racemic cis 1,2,3,4,5,6-hexahydro-6-ethyl-11-methyl-8-hydroxy-2,6-methano-3-benzazocine, 6.0 g. of 1-bromo-3-methyl-2-butene, 125 ml. of N,N-dimethylformamide, and 5.0 g. of sodium bicarbonate was stirred and refluxed for approximately 41/2 hours. The reaction mixture was then filtered, and the solid collected on the filter was washed with ethanol. The filtrate and the wash liquor were combined and concentrated under reduced pressure. To the resulting residue there was added 50 ml. of diethyl ether, and the mixture was filtered. Approximately 0.6 g. of solid was collected on the filter, and 8.2 g. of brown solid separated from the filtrate and was collected by filtration. These two crops of solid (8.8 g.) were combined, 25 ml. of methanol was added, and the mixture was boiled. Only a small portion of the solid dissolved. This mixture was mixed with 25 ml. of water and chilled. The mixture was filtered to collect 8.3 g. of pale tan solid which melted at 156°-158° C. […]

Data set [5] is described as follows: Support of morphine addiction in stabilized morphine addicts.
The test system of data set [6] is analgesic effect of morphine sulfate. Briefly: Antagonism of morphine analgesia, modified D'Amour-Smith test. The settings on record: Rattus norvegicus, sc, read-out: dosage of antagonist which reduced the analgesic effect of morphine by approximately 50 per cent.

Values after ≈ are worked out from the molar mass of the structure shown.

Regarding `CC[C@]12CCN(CC=C(C)C)[C@@H](Cc3ccc(O)cc31)C2C` (relative stereo) [7D (dextro trans), trans 1,2,3,4,5,6-hexahydro-3-(3-methyl-2-butenyl)-6-ethyl-11-methyl-8-hydroxy-2,6-methano-3-benzazocine], the “analgesic activity in D'Amour-Smith test” value in data set [1] (at 30 mg./kg.) is “inactive”. In data set [1] (at 60 mg./kg.), the “toxicity in D'Amour-Smith test” value is “toxic”. The “maximum degree of antagonism” value in data set [2] (at 1.25 mg./kg.) is on record as 30%.
`CC[C@]12CCN(CC=C(C)C)[C@H](Cc3ccc(O)cc31)[C@H]2C` (relative stereo) [7D (racemic trans), trans 1,2,3,4,5,6-hexahydro-3-(3-methyl-2-butenyl)-6-ethyl-11-methyl-8-hydroxy-2,6-methano-3-benzazocine] showed an ED50 in data set [1] (Rattus norvegicus) of 1.4 mg/kg. For the same compound, the “maximum degree of antagonism” value in data set [2] (at 0.1 mg/kg.) was found to be 50%.
With `CC(C)=CCN1CC[C@@]2(C)c3cc(O)ccc3C[C@@H]1[C@@H]2C` (relative stereo) [4A (base), racemic cis 1,2,3,4,5,6-hexahydro-3-(3-methyl-2-butenyl)-6,11-dimethyl-8-hydroxy-2,6-methano-3-benzazocine], the “analgesia in human subjects” value in data set [3] (orally, 50mg./70 kg. and 100 mg./70 kg.) is “effective and satisfactory analgesia”; in data set [3] (parenterally, 10 mg./70 kg. and 60 mg./70 kg.) it was “effective and satisfactory analgesia”. Moreover, the “dose approximately equivalent to 10 mg. of morphine sulfate as an analgesic” value in data set [3] (parenterally in humans) is roughly 20 mg. The “pH of the 1 percent solution” value in data set [4] (1 percent solution in dilute hydrochloric acid) is on record as 2.80. The “pH at which a precipitate formed” value in data set [4] (1 percent solution, addition of N/10 sodium hydroxide) amounted to 5.4. Moreover, the solubility in data set [4] (dilute hydrochloric acid, mixture of 0.35 ml. of N/2 hydrochloric acid and 0.15 ml. of water, read-out: solubility in dilute hydrochloric acid) was determined as 100 mg/mL (≈ 350 mM). The “support of morphine addiction” value in data set [5] is listed as “did not support morphine addiction”. Besides, the ED50 in data set [6] was 9 mg/kg; in data set [2] (Rattus norvegicus, sc, read-out: dosage of antagonist which reduced the analgesic effect of meperidine by approximately 50 per cent), 3.9 mg/kg.
As for `CC[C@]12CCN(CC=C(C)C)[C@@H](Cc3ccc(O)cc31)C2C` (relative stereo) [7D (levo trans), trans 1,2,3,4,5,6-hexahydro-3-(3-methyl-2-butenyl)-6-ethyl-11-methyl-8-hydroxy-2,6-methano-3-benzazocine], the “ED50 in D'Amour-Smith test for analgesia” value in data set [1] came out at 0.94 mg/kg. Also, the “maximum degree of antagonism” value in data set [2] (at 0.1 mg/kg.) was 22%.

The term solubility denotes the concentration that dissolves in the medium under given conditions.
